We go through 2 compounds from US12569502B2, “Use of bile acids and derivatives thereof in preparation of GPR39 agonist” (PEKING UNIVERSITY, priority 2019, dated 2026).

Read-outs that look alike come from different tables or passages of the source. A value given as a limit tells only on which side of the number the result lay.

In test [1] the target is T1, GPR39 (Homo sapiens, UniProt O43194).
T1 sequence (O43194 1-453): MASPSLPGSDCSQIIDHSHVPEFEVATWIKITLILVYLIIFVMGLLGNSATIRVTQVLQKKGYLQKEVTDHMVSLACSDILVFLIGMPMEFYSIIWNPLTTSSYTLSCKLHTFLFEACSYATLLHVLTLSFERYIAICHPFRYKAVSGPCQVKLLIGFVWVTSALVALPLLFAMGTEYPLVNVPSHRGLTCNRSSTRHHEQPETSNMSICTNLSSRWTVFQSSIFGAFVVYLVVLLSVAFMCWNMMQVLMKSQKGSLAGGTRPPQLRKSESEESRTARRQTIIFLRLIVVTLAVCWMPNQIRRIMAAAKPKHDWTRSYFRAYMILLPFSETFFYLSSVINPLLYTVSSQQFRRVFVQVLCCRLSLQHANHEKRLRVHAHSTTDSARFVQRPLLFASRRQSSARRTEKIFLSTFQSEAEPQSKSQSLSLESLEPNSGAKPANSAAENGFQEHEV
The conditions noted are these: cell line that transiently or stably expresses GPR39; read-out: cAMP elevation EC50; cited from earlier work.

Test [2] addresses T2, human GPR39 receptors on human GPR39-2 cell lines (Homo sapiens, UniProt O43194).
T2 construct: P2A-mCherry (C)
T2 sequence (O43194 1-453): T1 sequence (O43194 1-453)
The test can be described thus: FLIPR calcium imaging on human GPR39-2 cell line stably expressing human GPR39. The test is classed as cell-based. The conditions noted are these: for EC50: human GPR39-2 cells. The source says: The human GPR39 cDNA vector was purchased from WZ Biosciences Inc., Shandong. It was cloned onto a lentiviral vector PLVXK-hGPR39-P2A-mCherry (FIG. 10) through PCR amplification using primers hGPR39-F (which sequence was shown as set forth in SEQshown as set forth in SEQ ID NO: 15) and hGPR39-R (which sequence was shown as set forth in SEQ shown as set forth in SEQ ID NO: 16), in which the sequence of the target gene human GPR39 cDNA was shown as set forth in SEQ shown as set forth in SEQ ID NO: 14. A cell line human GPR39-2 stably expressing human GPR39 gene was constructed according to the method of Example 1.

Test [3] addresses T1, GPR39. The conditions noted are these: cell line that transiently or stably expresses GPR39; read-out: phosphoinositide accumulation EC50; cited from earlier work.
Test [4] concerns the target T3, zinc ion binding site mutant (H17A and H19A) GPR39 (Mus musculus, UniProt Q5U431, H17A/H19A).
T3 construct: 3HA (N); P2A-mCherry (C); expressed in transfected cells; host or cells: HEK293T, transient (Lipofectamine 3000)
T3 sequence (Q5U431 1-456 H17A/H19A): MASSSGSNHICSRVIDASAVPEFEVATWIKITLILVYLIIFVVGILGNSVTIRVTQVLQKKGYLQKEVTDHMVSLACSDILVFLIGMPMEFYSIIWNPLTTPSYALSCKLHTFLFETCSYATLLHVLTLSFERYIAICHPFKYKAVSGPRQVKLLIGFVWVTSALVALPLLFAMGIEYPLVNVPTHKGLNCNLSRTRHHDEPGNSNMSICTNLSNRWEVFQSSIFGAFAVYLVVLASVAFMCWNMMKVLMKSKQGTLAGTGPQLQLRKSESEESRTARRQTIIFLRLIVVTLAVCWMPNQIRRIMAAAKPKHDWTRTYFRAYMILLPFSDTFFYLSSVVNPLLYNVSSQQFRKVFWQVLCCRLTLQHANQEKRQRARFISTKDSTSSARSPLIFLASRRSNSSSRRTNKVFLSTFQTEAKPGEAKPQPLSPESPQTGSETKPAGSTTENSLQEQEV
The test can be described thus: Calcium imaging on 293T cells transiently transfected with zinc ion binding site mutant GPR39. The test is classed as cell-based. The conditions noted are these: transiently transfected HEK293T cells. The source says:
In the present application, the bile acid and/or derivative thereof is capable of activating the GPR39 independent of a zinc ion binding site. For example, in some embodiments, murine-derived wild-type (WT) GPR39 or zinc ion binding site mutant (H17A and H19A) GPR39 are transiently expressed in 293T cells by using lipofectamine3000 transfection kit. The activation effect of LCAS on the wild-type (WT) and mutants (H17A and H19A) is detected by calcium imaging.
The pCMV6-3HA-mGPR39-P2A-mCherry vector carrying murine-derived GPR39 gene and having a total length of about 7 Kbp was selected as the PCR template, and a site-directed mutant vector was obtained by PCR site-directed mutagenesis. With the mutation site as the centre, a forward primer m39-H17A-F and a reverse primer m39-H17A-R were designed by extending approximately 15 bp each way, which sequences were respectively shown in Table 3 below. At 1 bp upstream of the mutation site, a 15 bp complementary sequence to the forward primer was designed, and the length of the reverse primer was designed to maintain the annealing temperature of the primer at 60° C. A high-fidelity DNA polymerase (Phanta Max Super-fidelity DNA polymerase, Vazyme) was used for site-directed PCR. 5 μL cutsmart buffer (NEB) and 1 μL restriction endonuclease DpnI (NEB) were added into the PCR product for overnight digestion, and then 10 μL of the product was transferred into 50 μL DH5α for heat shock transformation. The corresponding resistant solid LB medium was selected to coat and culture the product and enable it grow overnight at 37° C. A single colony was picked for inoculation, and the bacteria were shaken to extract the plasmid which was verified by sequencing. A monoclonal vector which had been sequenced to be correct was selected and marked as pCMV6-3HA-mGPR39(H17A&H19A)-P2A-mCherry, which structure was shown in FIG. 5.
HEK293T cells were seeded in a PDL-coated 96-well plate (coring Co.) at an appropriate density (about 3×10^4 cells/well) and cultured under conditions of 37° C. and 5% CO2. […]

In test [5] the test system is GPR39. Put plainly: Confocal calcium imaging of Ghrelin receptor family. The class given is cell-based. The conditions noted are these: 200 μM.

The term EC50 denotes the concentration giving half of the maximal effect. For the compound `[Zn+2]` [Zinc ions, reference compound], the EC50 is 7.4 µM on GPR39 [1]; 12 ± 2.8 µM in test [2] (no added zinc ions, read-out: EC50 Only agonist); 22 µM on GPR39 [3]; greater than 100 µM in test [4] (agonist alone).
For `C[C@H](CCC(=O)O)[C@H]1CC[C@H]2[C@@H]3CC[C@@H]4C[C@H](OS(=O)(=O)O)CC[C@]4(C)[C@H]3CC[C@]12C` [LCAS], the EC50 in test [2] (EC50 Agonist + 4 μM zinc ions, 4 μM zinc ions) was 0.97 ± 0.3 µM; in test [4] (+ 4 μM zinc ions) it was 8.7 ± 0.8 µM; in test [4] (agonist alone), 24 ± 0.8 µM. In addition, in test [2] (FIG. 9), the “intracellular calcium signal response of human GPR39-2” value is listed as “capable of inducing intracellular calcium signal response”. In addition, the “activation of GPR39 (calcium imaging)” value in the test with GPR39 [5] is “may be activated”.
